Assay results: PubChem BioAssay (NCI)
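Grown in 96-well plates, cells were treated for 48 hours with each compound at five concentrations. Insufficient inhibition: endpoint recorded as highest concentration tested. At the GI50, growth is halved. TGI denotes the concentration required for complete inhibition of growth.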

Key:
Test in all cases: NCI anticancer screen, dose series, 48 h
HCC-2998 colon = test system: HCC-2998 colon
HCT-116 colon = test system: HCT-116 colon
RPMI-8226 leukemia = test system: RPMI-8226 leukemia
MDA-MB-231 breast = test system: MDA-MB-231 breast
LOX IMVI melanoma = test system: LOX IMVI melanoma
MDA-MB-435 = test system: MDA-MB-435
RXF 393 renal = test system: RXF 393 renal
SF-539 CNS = test system: SF-539 CNS
NCI-H522 lung = test system: NCI-H522 lung
SNB-19 CNS = test system: SNB-19 CNS
SK-OV-3 ovarian = test system: SK-OV-3 ovarian
SNB-75 CNS = test system: SNB-75 CNS
TK-10 renal = test system: TK-10 renal
EKVX NSCLC = test system: EKVX NSCLC
COLO 205 colon = test system: COLO 205 colon
SK-MEL-5 melanoma = test system: SK-MEL-5 melanoma
CCRF-CEM leukemia = test system: CCRF-CEM leukemia
MOLT-4 leukemia = test system: MOLT-4 leukemia
SK-MEL-2 melanoma = test system: SK-MEL-2 melanoma
PC-3 prostate = test system: PC-3 prostate
MCF7 breast = test system: MCF7 breast
IGROV1 ovarian = test system: IGROV1 ovarian
NCI-H23 lung = test system: NCI-H23 lung
UACC-62 melanoma = test system: UACC-62 melanoma
HCT-15 colon = test system: HCT-15 colon
OVCAR-5 ovarian = test system: OVCAR-5 ovarian
HT29 colon = test system: HT29 colon
U251 CNS = test system: U251 CNS
T-47D breast = test system: T-47D breast
SR leukemia = test system: SR leukemia
UACC-257 melanoma = test system: UACC-257 melanoma
SW-620 colon = test system: SW-620 colon
OVCAR-3 ovarian = test system: OVCAR-3 ovarian
UO-31 renal = test system: UO-31 renal
SK-MEL-28 melanoma = test system: SK-MEL-28 melanoma
HOP-62 NSCLC = test system: HOP-62 NSCLC
786-0 renal = test system: 786-0 renal
MALME-3M melanoma = test system: MALME-3M melanoma
NCI/ADR-RES ovarian = test system: NCI/ADR-RES ovarian
HS 578T breast = test system: HS 578T breast
A498 renal = test system: A498 renal
NCI-H226 lung = test system: NCI-H226 lung
SF-268 CNS = test system: SF-268 CNS
DU-145 prostate = test system: DU-145 prostate
K-562 leukemia = test system: K-562 leukemia
OVCAR-8 ovarian = test system: OVCAR-8 ovarian
CAKI-1 renal = test system: CAKI-1 renal
ACHN renal = test system: ACHN renal
SF-295 CNS = test system: SF-295 CNS
SN12C renal = test system: SN12C renal
HL-60(TB) leukemia = test system: HL-60(TB) leukemia
NCI-H460 lung = test system: NCI-H460 lung
OVCAR-4 ovarian = test system: OVCAR-4 ovarian
A549 NSCLC = test system: A549 NSCLC
M14 melanoma = test system: M14 melanoma
KM12 colon = test system: KM12 colon

[N-]=[N+]=NCCCn1c2c(c3ccc([N+](=O)[O-])cc3c1=O)C(=O)c1cc(I)ccc1-2 showed a GI50 (HCC-2998 colon) of 11.7 µM, a TGI (HCC-2998 colon) of 59.3 µM and a GI50 (HCT-116 colon) of 2.15 µM. The TGI (HCT-116 colon) was 26.4 µM, the GI50 (RPMI-8226 leukemia) was 2.17 µM and the TGI (RPMI-8226 leukemia) was 59.6 µM. For the same molecule, the GI50 (MDA-MB-231 breast) was > 100 µM, the TGI (MDA-MB-231 breast) was > 100 µM and the GI50 (LOX IMVI melanoma) was 3.75 µM. The TGI (LOX IMVI melanoma) was 33 µM, the GI50 (MDA-MB-435) was 34.3 µM and the TGI (MDA-MB-435) was > 100 µM. For the same molecule, the GI50 (RXF 393 renal) was 12.5 µM, the TGI (RXF 393 renal) was 62.8 µM and the GI50 (SF-539 CNS) was 2.23 µM. For the same molecule, the TGI (SF-539 CNS) was 8.51 µM, the GI50 (NCI-H522 lung) was 1.68 µM and the TGI (NCI-H522 lung) was 12.4 µM. For the same molecule, the GI50 (SNB-19 CNS) was 4.62 µM, the TGI (SNB-19 CNS) was > 100 µM and the GI50 (SK-OV-3 ovarian) was 2.11 µM. The TGI (SK-OV-3 ovarian) was 8.74 µM, the GI50 (SNB-75 CNS) was 8.63 µM and the TGI (SNB-75 CNS) was > 100 µM. For the same molecule, the GI50 (TK-10 renal) was 71.9 µM, the TGI (TK-10 renal) was > 100 µM and the GI50 (EKVX NSCLC) was 22 µM. For the same molecule, the TGI (EKVX NSCLC) was > 100 µM, the GI50 (COLO 205 colon) was 40.4 µM and the TGI (COLO 205 colon) was > 100 µM. The GI50 (SK-MEL-5 melanoma) was 3.77 µM, the TGI (SK-MEL-5 melanoma) was 15.5 µM and the GI50 (CCRF-CEM leukemia) was 0.416 µM. For the same molecule, the TGI (CCRF-CEM leukemia) was > 100 µM, the GI50 (MOLT-4 leukemia) was 0.833 µM and the TGI (MOLT-4 leukemia) was 5.08 µM. For the same molecule, the GI50 (SK-MEL-2 melanoma) was 71.2 µM, the TGI (SK-MEL-2 melanoma) was > 100 µM and the GI50 (PC-3 prostate) was 11 µM. For the same molecule, the TGI (PC-3 prostate) was > 100 µM, the GI50 (MCF7 breast) was 0.586 µM and the TGI (MCF7 breast) was > 100 µM. For the same molecule, the GI50 (IGROV1 ovarian) was 1.95 µM, the TGI (IGROV1 ovarian) was 65.5 µM and the GI50 (NCI-H23 lung) was 5.41 µM. The TGI (NCI-H23 lung) was 55.7 µM, the GI50 (UACC-62 melanoma) was 3.33 µM and the TGI (UACC-62 melanoma) was 18.3 µM. The GI50 (HCT-15 colon) was 18.5 µM, the TGI (HCT-15 colon) was > 100 µM and the GI50 (OVCAR-5 ovarian) was 41.2 µM. For the same molecule, the TGI (OVCAR-5 ovarian) was > 100 µM, the GI50 (HT29 colon) was 10.7 µM and the TGI (HT29 colon) was > 100 µM. The GI50 (U251 CNS) was 2.23 µM, the TGI (U251 CNS) was 30.6 µM and the GI50 (T-47D breast) was 3.87 µM. For the same molecule, the TGI (T-47D breast) was > 100 µM, the GI50 (SR leukemia) was 0.344 µM and the TGI (SR leukemia) was 2.87 µM. For the same molecule, the GI50 (UACC-257 melanoma) was 26.7 µM, the TGI (UACC-257 melanoma) was > 100 µM and the GI50 (SW-620 colon) was 1.72 µM. For the same molecule, the TGI (SW-620 colon) was > 100 µM, the GI50 (OVCAR-3 ovarian) was 18.3 µM and the TGI (OVCAR-3 ovarian) was > 100 µM. The GI50 (UO-31 renal) was 3.82 µM, the TGI (UO-31 renal) was 45.6 µM and the GI50 (SK-MEL-28 melanoma) was 41.5 µM. For the same molecule, the TGI (SK-MEL-28 melanoma) was > 100 µM, the GI50 (HOP-62 NSCLC) was 1.82 µM and the TGI (HOP-62 NSCLC) was 38.8 µM. For the same molecule, the GI50 (786-0 renal) was 3.17 µM, the TGI (786-0 renal) was 16 µM and the GI50 (MALME-3M melanoma) was 12.5 µM. For the same molecule, the TGI (MALME-3M melanoma) was 77 µM, the GI50 (NCI/ADR-RES ovarian) was 4.17 µM and the TGI (NCI/ADR-RES ovarian) was 46.6 µM. The GI50 (HS 578T breast) was 28 µM, the TGI (HS 578T breast) was > 100 µM and the GI50 (A498 renal) was 6.52 µM. The TGI (A498 renal) was 28.5 µM, the GI50 (NCI-H226 lung) was 14.3 µM and the TGI (NCI-H226 lung) was > 100 µM. For the same molecule, the GI50 (SF-268 CNS) was 2.58 µM, the TGI (SF-268 CNS) was > 100 µM and the GI50 (DU-145 prostate) was 1.78 µM. The TGI (DU-145 prostate) was 6.95 µM, the GI50 (K-562 leukemia) was 5.15 µM and the TGI (K-562 leukemia) was > 100 µM. The GI50 (OVCAR-8 ovarian) was 11.3 µM, the TGI (OVCAR-8 ovarian) was > 100 µM and the GI50 (CAKI-1 renal) was 9.38 µM. For the same molecule, the TGI (CAKI-1 renal) was > 100 µM, the GI50 (ACHN renal) was 2.25 µM and the TGI (ACHN renal) was 7.5 µM. For the same molecule, the GI50 (SF-295 CNS) was 1.54 µM, the TGI (SF-295 CNS) was > 100 µM and the GI50 (SN12C renal) was 3.89 µM. The TGI (SN12C renal) was > 100 µM, the GI50 (HL-60(TB) leukemia) was 3.79 µM and the TGI (HL-60(TB) leukemia) was 26.3 µM. The GI50 (NCI-H460 lung) was 0.449 µM, the TGI (NCI-H460 lung) was 11.6 µM and the GI50 (OVCAR-4 ovarian) was 60 µM. For the same molecule, the TGI (OVCAR-4 ovarian) was > 100 µM, the GI50 (A549 NSCLC) was 8.06 µM and the TGI (A549 NSCLC) was > 100 µM. The GI50 (M14 melanoma) was 3.29 µM, the TGI (M14 melanoma) was 22.4 µM and the GI50 (KM12 colon) was 18 µM. The TGI (KM12 colon) was > 100 µM.
